In US20130047297A1, “POLYNUCLEOTIDE MOLECULES FOR GENE REGULATION IN PLANTS” (priority 2010, published 2013):

Test system: Glyphosate-resistant Palmer amaranth plants (33, 36, or 57 copies EPSPS)
Assay: Spermine, spermidine or ammonium sulfate with dsRNA then glyphosate (Example 35, FIG. 39)
Format: in vivo
Conditions: 10 mM spermidine alone
Procedure: The effect of the polyamine cations spermine (N,N′-bis(3-aminopropyl)butane-1,4-diamine) and spermidine (N-(3-aminopropyl)butane-1,4-diamine) on herbicidal activity of topically applied polynucleotides (RNA) on glyphosate-resistant Palmer amaranth plants was investigated. […] The dsRNA polynucleotide solutions were prepared with either 1 or 10 millimolar spermine or spermidine or 2% ammonium sulfate, in a 10 millimolar sodium phosphate (pH 6.8) buffer. Control solutions (without polynucleotides) were prepared with either 1 or 10 millimolar spermine or spermidine or 2% ammonium sulfate, in a 10 millimolar sodium phosphate (pH 6.8) buffer. Glyphosate-resistant Palmer amaranth plants (33, 36, or 57 copies EPSPS) were pre-sprayed with 1% Silwet L-77. The dsRNA polynucleotide solutions (11.6 grams/acre) or buffer solutions were applied as drops on four lower fully expanded leaves of glyphos ate resistant Palmer amaranth by pipetting. Two days following polynucleotide treatment the plants were sprayed with glyphosate (3360 g acid equivalent per hectare of Roundup® WeatherMAX® brand herbicide).

NCCCCNCCCN [spermidine, N-(3-aminopropyl)butane-1,4-diamine]
plant outcome, 33-copy: stunted
